Data on one compound can be found in patent US6649605B2, “Treatment of tension-type headaches with NMDA receptor antagonists” (Head Explorer A/S, priority 1996, dated 2003).

“Also recorded” adds a separate entry of the source.

Test [1] concerns patients with chronic tension-type headache. As to the kind of experiment: Double-blind crossover i.v. L-NMMA vs placebo: headache intensity on VAS and VRS. The test is classed as in vivo, human. The text has this:
Sixteen patients With a diagnosis of chronic tension-type headache according to the criteria of the International Headache Society, (headache Classification Committee 1988) were recruited from the out-patient headache clinic at Glostrup Hospital. There were 12 women and 4 men with a mean age (range) of 38.5 (23-52) years. Five patients with coexisting infrequent migraine (£ one day/month) were accepted. All patients completed a diagnostic headache diary during a 4-week run-in period (Russell et al. 1992). At screening, a full physical and neurological examination, including 12-lead ECG were carried out. Blood samples for routine haematological and biochemical testing, and urine sample for urine analysis were taken. The patients were not allowed to take analgesics 12 hours prior to the treatment. Exclusion criteria were: daily medication (including prophylactic headache therapy but not oral contraceptives); pregnant or breast feeding women; abuse of analgesics (corresponding to>2 gm of aspirin/day) or alcohol, serious somatic or psychiatric diseases including depression (Hamilton Depression Score ^317 (Hamilton 1960)); ischemic heart disease; a supine diastolic blood pressure >90 mmHg or heart rate <50 beats per minute at study entry. All patients gave written informed consent to participate in the study, which was approved by The local ethics committee and conducted in accordance with the Declaration of Helsinki.
Randomization (Med.Stat) and drug preparation were performed by staff not involved in the study. The medication was given over 15 minutes into an antecubital vein (Braun Perfusor). The following parameters were measured at baseline and […] post administration: headache intensity on a 100-mm Visual Analog Scale (VAS) (0-no headache and 100-worst imaginable headache) and on a Verbal Rating Scale (VRS) from 0-10 (0-no headache; 5-moderate headache; 10-worst imaginable headache). Blood pressure and pulse rate were measured 5 minutes prior to administration of treatment and at 5, 10, 15, 20, 25, 30, 60, 90 and 120 minutes post administration. Twelve-lead ECG was monitored continuously. Any adverse events were recorded. Patient with unrelieved headache at 120 minutes post treatment were allowed to take rescue medication. All patients were asked to record details of the following on a diary card at 4, 8, 12, 16, 20 and 24 hours post administration, headache intensity on VRS, any medication taken and adverse events. Between 4-7 days after each treatment, the patients returned to the clinic, the diary cards were collected and any adverse events were noted.
Primary endpoint was the reduction of pain intensity over time on active treatment compared to placebo. The secondary endpoints were reduction of pain intensity at 30, 60, 90 and 120 minutes post dosing on VAS and VRS compared to pre-treatment pain score within each treatment. Comparison of pain intensity on VAS, blood pressure and pulse rate over time between treatments were performed With ANOVA. Paired-Samples T Test was used to compare pre-treatment pain score on VAS with pain score at 30, 60, 90, 120 minutes post dosing within each treatment. The sum of differences between the pre-treatment VRS score and the VRS score at 30, 60, 90, 120 minutes post dosing was calculated in order to obtained a summary measure of pain score for each treatment (Matthews et al. 1990). These sums of differences for each treatment were compared by Wilcoxon Signed Rank test. Five percent was accepted as level of significance.
The recordings were performed in a standardized manner by the same observer, a trained technician (HA), throughout the study. All parameters were recorded at baseline, 60 and 120 minutes after start of infusion. The trial was designed as a double blind, placebo controlled, crossover study. […] The patients were not allowed to take analgesics 12 hours prior to the examination. […]

The subject of test [2] is trapezius muscle of patients with chronic tension-type headache. As to the kind of experiment: Muscle hardness of the trapezius muscle (hardness meter) after L-NMMA. In kind it is in vivo, human. As to conditions: 6 mg/kg i.v. An excerpt: Sixteen patients with a diagnosis of chronic tension-type headache according to the criteria of the International Headache Society (Headache Classification Committee 1988) were included (Table XVII). Five of the patients had coexisting infrequent migraine (<four days/year). The patients were recruited from the out-patient headache clinic at Glostrup University Hospital without respect to presence or absence of myofascial tenderness. All patients underwent a general physical and a neurological examination and completed a diagnostic headache diary during a 4-week run-in period (Russell et al. 1992). […]
Muscle hardness. The muscle hardness of the trapezius muscle was measured with a hardness meter, which has previously been described in detail (Horikawa et al. 1993). […]
The recordings were performed in a standardized manner by the same observer, a trained technician (HA), throughout the study. All parameters were recorded at baseline, 60 and 120 minutes after start of infusion. […] Headache intensity was measured on a 100 mm Visual Analog Scale (VAS) (0-no headache and 100-worst imaginable headache) before, during and after start of infusion.
Muscle hardness. The muscle hardness was measured at a standard anatomical point on the trapezius muscle On the non-dominant side, as previously described (Ashina et al. 1998b). […] The muscle hardness was calculated as the mean of five consecutive determinations. […]

On to `CN=C(N)NCCC[C@H](N)C(=O)O.Cl` [L-NMMA, L-N^G methyl arginine hydrochloride], for which the “Pain intensity (VAS) over time compared with placebo” value in test [1] (6 mg/kg i.v., 16 patients, ANOVA, hydrochloride) is recorded as “reduced pain intensity (VAS) over time significantly more than placebo; also recorded: effective in the treatment of patients with chronic tension-type headache; also recorded: significantly reduced”. In test [1] (6 mg/kg i.v., post treatment time points, hydrochloride), the “Pain score compared with pre-treatment value within treatment” value is “significantly reduced after 30, 60, 90 and 120 minutes; also recorded: significantly reduced at each time point”. The “Pain score on VAS, 30 minutes” value in test [1] (30 minutes post dosing, 100-mm VAS, 6 mg/kg i.v., mean (SD)) was determined as 38 ± 18. Also, the “Pain score on VAS, 60 minutes” value in test [1] (60 minutes post dosing, 100-mm VAS, 6 mg/kg i.v., mean (SD)) amounted to 35 ± 18. In test [1] (90 minutes post dosing, 100-mm VAS, 6 mg/kg i.v., mean (SD)), the “Pain score on VAS, 90 minutes” value worked out at 34 ± 21. For the same compound, in test [1] (120 minutes post dosing, 100-mm VAS, 6 mg/kg i.v., mean (SD)), the “Pain score on VAS, 120 minutes” value stood at 33 ± 21. Also, the “Pain intensity on VRS compared with placebo” value in test [1] (Verbal Rating Scale 0-10, 6 mg/kg i.v., p=0.02) is reported as “significantly lower”. Besides, in test [1] (after start of infusion, 6 mg/kg i.v.), the “Duration of antinociceptive effect on headache intensity and of reduction of muscle hardness and tenderness” value is reported as “at least 120 minutes”. In test [1] (before treatment, 100-mm VAS, 6 mg/kg i.v. over 15 minutes, mean (SD), 16 patients), the “Pain score on VAS, baseline” value is reported as 49 ± 16. Besides, the “Muscle hardness (summary score) compared with placebo” value in test [2] (p=0.04, hydrochloride) was “significantly more reduced; also recorded: reduces muscle hardness; also recorded: reduced significantly more; also recorded: significantly reduced”. In test [2] (p=0.04 and p<0.05), the “Muscle hardness compared with baseline” value is “significantly reduced at 60 and 120 minutes”.
